Measured values reported in publication PMC9228656 (Toxins, 2022).
Like-named read-outs stand apart in the source and are kept apart here.

Experiments:
[1] = system: Salmonella typhimurium 1535/pSK1002
[2] = system: Salmonella typhimurium 1535/pSK1002; remark: listed apart in the source
[3] = system: Salmonella tester strains; conditions: cited from earlier work
[4] = system: Salmonella typhimurium 1535/pSK1002; remark: listed apart in the source
[5] = system: Escherichia coli PQ37; conditions: cited from earlier work
[6] = system: 1535, 1538 and 98 strains; conditions: cited from earlier work
[7] = system: Escherichia coli; conditions: cited from earlier work

Row | Molecule | experiments with IF values above two [2] | mutagenic activity in the Ames test [3] | genotoxicity result in the SOS/umu test [4] | genotoxicity result in the SOS/umu test [1] | genotoxicity result in the SOS/umu test [2] | also measured
1 | Nc1ccc2cc3ccccc3cc2c1 [2AA, 2-aminoanthracene, reference compound] |  |  |  |  |  | experiments in which the compound was genotoxic [1]: eight out of eight experiments; induction factor (IF) reached ([1]; Salmonella typhimurium): around 4
2 | CC(=O)O[C@@H]1C[C@]2(C)[C@@]3(CO)[C@H](O)C(=O)C(C)=C[C@H]3O[C@H]1[C@@]21CO1 [3ADON, 3-acetyldeoxynivalenol] | three out of four experiments | mutagenic activity was not found |  |  |  | 
3 | CC(=O)OC[C@]12[C@H](O)C(=O)C(C)=C[C@H]1O[C@@H]1[C@H](O)C[C@@]2(C)[C@]12CO2 [15ADON, 15-acetyldeoxynivalenol] | two out of four experiments |  |  |  |  | 
4 | CC1=C[C@H]2O[C@@H]3[C@H](O)C[C@](C)([C@@]2(CO)[C@H](O)C1=O)[C@]31CO1 [DON, deoxynivalenol] |  | mutagenic activity was not found | negative (key: IF values above or equal to two were considered as positive when the bacterial survival is above 80%; IF values below 1.5 were considered negative; IF among 2 and 1.5 were considered equivocal) | negative (key: IF values above or equal to two were considered as positive when the bacterial survival is above 80%; IF values below 1.5 were considered negative; IF among 2 and 1.5 were considered equivocal) | negative (key: IF values above or equal to two were considered as positive when the bacterial survival is above 80%; IF values below 1.5 were considered negative; IF among 2 and 1.5 were considered equivocal) | highest IF value obtained ([2]; Salmonella typhimurium): 1.94; genotoxicity in the SOS chromotest [5]: negative
5 | CC(=O)O[C@@H]1[C@@H](O)[C@H]2O[C@@H]3C=C(C)C(=O)[C@@H](O)[C@]3(CO)[C@]1(C)[C@]21CO1 [F-X, fusarenon-X] |  | mutagenic activity was not found | negative (key: IF values above or equal to two were considered as positive when the bacterial survival is above 80%; IF values below 1.5 were considered negative; IF among 2 and 1.5 were considered equivocal) | negative (key: IF values above or equal to two were considered as positive when the bacterial survival is above 80%; IF values below 1.5 were considered negative; IF among 2 and 1.5 were considered equivocal) | negative (key: IF values above or equal to two were considered as positive when the bacterial survival is above 80%; IF values below 1.5 were considered negative; IF among 2 and 1.5 were considered equivocal) | highest IF value obtained [2]: 1.88
6 | CCCC[C@@H](C)[C@@H](OC(=O)C[C@@H](CC(=O)O)C(=O)O)[C@H](C[C@@H](C)C[C@H](O)CCCC[C@@H](O)C[C@H](O)[C@H](C)N)OC(=O)C[C@@H](CC(=O)O)C(=O)O [FB1, fumonisin B1] |  |  | negative (key: IF values above or equal to two were considered as positive when the bacterial survival is above 80%; IF values below 1.5 were considered negative; IF among 2 and 1.5 were considered equivocal) | negative (key: IF values above or equal to two were considered as positive when the bacterial survival is above 80%; IF values below 1.5 were considered negative; IF among 2 and 1.5 were considered equivocal) | negative (key: IF values above or equal to two were considered as positive when the bacterial survival is above 80%; IF values below 1.5 were considered negative; IF among 2 and 1.5 were considered equivocal) | IF value reached [2]: 1.99; mutagenic potential in the Ames test [3]: negative; genotoxicity in the SOS chromotest [5]: negative
7 | CC(=O)OC[C@]12C[C@H](OC(=O)CC(C)C)C(C)=C[C@H]1O[C@@H]1[C@H](O)[C@@H](O)[C@@]2(C)[C@]12CO2 [HT-2, HT-2 toxin] | two out of four experiments |  |  |  |  | 
8 | C[C@@H]1Cc2c(Cl)cc(C(=O)N[C@@H](Cc3ccccc3)C(=O)O)c(O)c2C(=O)O1 [OTA, ochratoxin A] |  |  | negative (key: IF values above or equal to two were considered as positive when the bacterial survival is above 80%; IF values below 1.5 were considered negative; IF among 2 and 1.5 were considered equivocal) | negative (key: IF values above or equal to two were considered as positive when the bacterial survival is above 80%; IF values below 1.5 were considered negative; IF among 2 and 1.5 were considered equivocal) | negative (key: IF values above or equal to two were considered as positive when the bacterial survival is above 80%; IF values below 1.5 were considered negative; IF among 2 and 1.5 were considered equivocal) | mutagenic response in the Ames test [3]: negative; mutagenicity with Salmonella tester strains [3]: consistently negative; SOS repair activity in SOS chromotest [5]: induced SOS repair activity; response in SOS chromotest [5]: weak response; mutagenicity in the Ames test [6]: mutagenic
9 | COc1cc2c(c3oc4cccc(O)c4c(=O)c13)[C@@H]1C=CO[C@@H]1O2 [STER, sterigmatocystin] | one out of four experiments |  |  |  |  | induction factor (IF) [1]: greater than two
10 | CC(=O)OC[C@]12C[C@H](OC(=O)CC(C)C)C(C)=C[C@H]1O[C@@H]1[C@H](O)[C@@H](OC(C)=O)[C@@]2(C)[C@]12CO2 [T-2, T-2 toxin] | three out of four experiments | mutagenic activity was not found |  |  |  | 
11 | C[C@H]1CCCC(=O)CCC/C=C/c2cc(O)cc(O)c2C(=O)O1 [ZEA, zearalenone] |  |  | negative (key: IF values above or equal to two were considered as positive when the bacterial survival is above 80%; IF values below 1.5 were considered negative; IF among 2 and 1.5 were considered equivocal) | negative (key: IF values above or equal to two were considered as positive when the bacterial survival is above 80%; IF values below 1.5 were considered negative; IF among 2 and 1.5 were considered equivocal) | negative (key: IF values above or equal to two were considered as positive when the bacterial survival is above 80%; IF values below 1.5 were considered negative; IF among 2 and 1.5 were considered equivocal) | result in the Ames test [3]: negative; genotoxic concentration (induction of SOS repair) [7]: 1.5 mM; IC50 ([7]; read-out: IC50 (toxicity)): 1450 µM
12 | aflatoxin B1 [AFB1] |  |  |  |  |  | mutagenicity with metabolic activation relative to without bioactivation [3]: 1000 times
